This is an account of results in the NIST ThermoML archive (doi:10.1016/j.tca.2017.10.004).

Numbers after ± are expanded uncertainties.

This series can be described thus: excess molar enthalpy (molar enthalpy of mixing); xn = mol fraction of the nth substance listed. The following applies: 100 kPa, Liquid, Calvet calorimetry.

In the case of `[Li]` [lithium] + [Zn], the excess molar enthalpy (1006 K, x2 = 0.0993) was -0.526 ± 0.287 kcal/mol.

As for `[Zn]` [zinc] + [Ga], the excess molar enthalpy (813 K, x1 = 0.9) is 0.191 ± 0.143 kcal/mol; the excess molar enthalpy (1017 K, x1 = 0.0996) worked out at 0.12 ± 0.0478 kcal/mol; the excess molar enthalpy (1018 K, x1 = 0.5) was 0.382 ± 0.0956 kcal/mol.
